# How the values were obtained:
# M. tuberculosis H37Rv = assay: MIC determination by Microplate Alamar Blue Assay (MABA) against H37Rv; assay type: cell-based, Mycobacterium tuberculosis; details: Mycobacterium tuberculosis, H37RV; Alamar assay, confirmatory testing alongside drug-resistant strains; read-out: MIC H37Rv
# [1] = tested on: isoniazid-resistant Mycobacterium tuberculosis (ATCC 35822); assay: microbe, parasite or virus in culture; assay type: cell-based; details: ATCC35822, read-out: MIC INH-R
# [2] = tested on: rifampin-resistant Mycobacterium tuberculosis (ATCC 35838); assay: microbe, parasite or virus in culture; assay type: cell-based; details: ATCC35838, Alamar assay
# [3] = tested on: ethambutol-resistant Mycobacterium tuberculosis; assay: microbe, parasite or virus in culture; assay type: cell-based; details: read-out: MIC EMB-R
# [4] = tested on: kanamycin-resistant Mycobacterium tuberculosis; assay: microbe, parasite or virus in culture; assay type: cell-based; details: read-out: MIC KM-R
# [5] = tested on: ciprofloxacin-resistant Mycobacterium tuberculosis; assay: microbe, parasite or virus in culture; assay type: cell-based; details: read-out: MIC CIP-R
# [6] = tested on: single-drug resistant M. tuberculosis strains; assay type: cell-based, Mycobacterium tuberculosis; details: judged from the ratios in Table 5
SMILES,MIC (M. tuberculosis H37Rv),MIC [1],MIC [2],MIC [3],MIC [4],MIC [5],"cross-resistance with isoniazid, rifampin, ethambutol, kanamycin or ciprofloxacin [6]"
"Nc1cc(O)c(C(=O)O)cc1F [Compound 12, 4-Amino-5-fluorosalicylic Acid]",≤ 3.13 µg/mL,25 µg/mL,6.25 µg/mL,≤ 3.13 µg/mL,6.25 µg/mL,6.25 µg/mL,–
"CC(=O)Nc1ccc(/C=N/NC(N)=S)cc1F [Compound 16, 4-Acetamido-3-fluorobenzaldehyde thiosemicarbazone]",≤ 0.1 µg/mL,≤ 0.1 µg/mL,≤ 0.1 µg/mL,0.2 µg/mL,≤ 0.1 µg/mL,≤ 0.1 µg/mL,no cross-resistance
